Source: US5591758A, “Organic nitrates, processes for their preparation and their use in the treatment of cardiovascular diseases” (Laboratoires Hoechst, SA, priority 1991, dated 1997)
Several values for one entry are separate records, joined by “and”; a condition that tells them apart may be missing. Identical values can stand only once.

Test system: anaesthetised dogs
Experiment: Tachyphylaxis model on anaesthetised dogs (repeated i.d. administration)
Type: in vivo, dogs (labrador/harrier cross)
Design: Δdp/dt average / ΔBPs / ΔBPd / ΔLVEDP / ΔHR / ΔBPs average / ΔBPd average / ΔLVEDP average / ΔHR average: unit not given here
Conditions: for ΔBPd / ΔBPs / ΔHR / ΔLVEDP / Δdp/dt: single dog
Experimental: Comparison with isosorbide mononitrate (IS-5-MN).
The product (46) is tested in a tachyphylaxis model on anaesthetised dogs. IS-5-MN is used as reference substance.
8 dogs of each sex, weighing between 16 and 24 kg, are used. These dogs are the progeny of a labrador/harrier cross. Anaesthesia is induced with the aid of sodium pentobarbital (45 mg/kg i.v.) and maintained by i.v. perfusion (flow rate: 8 mg/kg/h). The animals are ventilated, with the aid of a "Bird Mark 7" respirator, using ambient air, and catheterised. […] The arterial blood gases are measured at regular intervals.
IS-5-MN is also dissolved in water and given i.d. in a dosage of 5 mg/kg in a volume of 10 ml/animal.
Three hours (in the case of IS-5-MN) or four hours (in the case of (46)) after the first administration, the compounds are readministered in the same dosage and by the same route. The haemodynamic parameter chosen for the study of the tachyphylaxis is the systolic blood pressure (BPs), insofar as this parameter is very sensitive to the administration of the compounds.

[1] = 1st administration, 5 mg/kg i.d., 5 min
[2] = 1st administration, 5 mg/kg i.d., 10 min
[3] = 1st administration, 5 mg/kg i.d., 15 min
[4] = 1st administration, 5 mg/kg i.d., 30 min
[5] = 1st administration, 5 mg/kg i.d., 60 min
[6] = 1st administration, 5 mg/kg i.d., 120 min
[7] = 1st administration, 5 mg/kg i.d., 180 min
[8] = i.d., IS-5-MN 5 mg/kg, (46) 0.75 mg/kg
[9] = n = 4, 2nd administration, 5 mg/kg i.d., 5 min
[10] = n = 4, 2nd administration, 5 mg/kg i.d., 10 min
[11] = n = 4, 2nd administration, 5 mg/kg i.d., 15 min
[12] = n = 4, 2nd administration, 5 mg/kg i.d., 30 min
[13] = n = 4, 2nd administration, 5 mg/kg i.d., 60 min
[14] = n = 4, 2nd administration, 5 mg/kg i.d., 120 min
[15] = n = 4, 2nd administration, 5 mg/kg i.d., 180 min
[16] = 1st administration, 5 mg/kg i.d., 5 min, 5 mg/kg
[17] = 1st administration, 5 mg/kg i.d., 10 min, 5 mg/kg
[18] = 1st administration, 5 mg/kg i.d., 15 min, 5 mg/kg
[19] = 1st administration, 5 mg/kg i.d., 30 min, 5 mg/kg
[20] = 1st administration, 5 mg/kg i.d., 60 min, 5 mg/kg
[21] = 1st administration, 5 mg/kg i.d., 120 min, 5 mg/kg
[22] = 1st administration, 5 mg/kg i.d., 180 min, 5 mg/kg
[23] = 2nd administration, 5 mg/kg i.d., 5 min, 5 mg/kg
[24] = 2nd administration, 5 mg/kg i.d., 10 min, 5 mg/kg
[25] = 2nd administration, 5 mg/kg i.d., 15 min, 5 mg/kg
[26] = 2nd administration, 5 mg/kg i.d., 30 min, 5 mg/kg
[27] = 2nd administration, 5 mg/kg i.d., 60 min, 5 mg/kg
[28] = 2nd administration, 5 mg/kg i.d., 120 min, 5 mg/kg
[29] = 2nd administration, 5 mg/kg i.d., 180 min, 5 mg/kg

O=[N+]([O-])O[C@@H]1CO[C@H]2[C@@H]1OC[C@@H]2O [IS-5-MN, isosorbide 5-mononitrate, reference compound]
fall in the BPs, first administration, on average (5 mg/kg i.d.): -30 mmHg | return of BP to control value after second administration (5 mg/kg i.d.): rapid return to the control value | ΔBPd average [1]: -21 | ΔBPs average [1]: -30 | ΔLVEDP average [1]: -3 | Δdp/dt average [1]: -175 | ΔBPd average [2]: -18 | ΔBPs average [2]: -26 | ΔLVEDP average [2]: -3 | Δdp/dt average [2]: -175 | ΔBPd average [3]: -16 | ΔBPs average [3]: -25 | ΔLVEDP average [3]: -3 | Δdp/dt average [3]: -150 | ΔBPd average [4]: -13 | ΔBPs average [4]: -24 | ΔLVEDP average [4]: -3 | Δdp/dt average [4]: -175 | ΔBPd average [5]: -12 | ΔBPs average [5]: -23 | ΔLVEDP average [5]: -1 | Δdp/dt average [5]: -200 | ΔBPd average [6]: 3 | ΔBPs average [6]: -5 | ΔLVEDP average [6]: -2 | Δdp/dt average [6]: 75 | ΔBPd average [7]: 3 | ΔBPs average [7]: -4 | ΔLVEDP average [7]: -2 | Δdp/dt average [7]: 100 | development of tachyphylaxis after repeated administration (dogs, two i.d. administrations): tachyphylaxis after repeated administration | maximum fall in the BP after second administration [8]: -19 mmHg | time of maximum effect on BPs after first administration [8]: 5 min | time of maximum fall in the BP after second administration [8]: 5 min | ΔBPd average [9]: -13 | ΔBPs average [9]: -19 | ΔLVEDP average [9]: -1 | Δdp/dt average [9]: -125 | ΔBPd average [10]: -11 | ΔBPs average [10]: -15 | ΔLVEDP average [10]: -2 | Δdp/dt average [10]: -75 | ΔBPd average [11]: -9 | ΔBPs average [11]: -13 | ΔLVEDP average [11]: -1 | Δdp/dt average [11]: -100 | ΔBPd average [12]: -5 | ΔBPs average [12]: -9 | ΔLVEDP average [12]: -1 | Δdp/dt average [12]: 0 | ΔBPd average [13]: -4 | ΔBPs average [13]: -7 | ΔLVEDP average [13]: -2 | Δdp/dt average [13]: 50 | ΔBPd average [14]: -5 | ΔBPs average [14]: -6 | ΔLVEDP average [14]: -1 | Δdp/dt average [14]: 100 | ΔBPd average [15]: -1 | ΔBPs average [15]: -4 | ΔLVEDP average [15]: -2 | Δdp/dt average [15]: 175 | ΔBPd [16]: -15 and -25 and -20 | ΔBPs [16]: -25 and -35 and -30 | ΔHR [16]: 0 and 5 | ΔLVEDP [16]: -3 and -4 and -2 | Δdp/dt [16]: -200 and -100 and -300 | ΔBPd [17]: -15 and -20 | ΔBPs [17]: -25 and -30 | ΔHR [17]: 0 and 5 | ΔLVEDP [17]: -3 and -5 and -1 | Δdp/dt [17]: -300 and 0 and -100 | ΔBPd [18]: -15 and -10 and -20 | ΔBPs [18]: -25 and -20 and -30 | ΔHR [18]: -5 and 5 and 0 | ΔLVEDP [18]: -3 and -5 and -1 | Δdp/dt [18]: -200 and 0 and -100 and -300 | ΔBPd [19]: -15 and -10 | ΔBPs [19]: -35 and -20 and -25 and -15 | ΔHR [19]: -15 and 5 and 0 | ΔLVEDP [19]: -1 and -5 and -3 | Δdp/dt [19]: -300 and 0 and -100 | ΔBPd [20]: -20 and 0 and -15 | ΔBPs [20]: -35 and -10 and -25 and -20 | ΔHR [20]: -20 and 10 and -5 and 0 | ΔLVEDP [20]: 0 and -2 and -3 and -1 | Δdp/dt [20]: -400 and 0 and -100 and -300 | ΔBPd [21]: 10 and 0 and -5 and 5 | ΔBPs [21]: 0 and -15 and -5 | ΔHR [21]: 0 and 10 and 5 | ΔLVEDP [21]: -1 and -3 and -2 | Δdp/dt [21]: 400 and 0 and -100 | Δdp/dt [7]: 100 | ΔBPd [22]: 5 and 0 and -5 and 10 | ΔBPs [22]: -5 and 0 and -15 and 5 | ΔHR [22]: -5 and 10 and 5 | ΔLVEDP [22]: -3 and -1 and -5 and 0 | ΔBPd [23]: -5 and -15 | ΔBPs [23]: -15 and -20 | ΔHR [23]: 0 and 5 | ΔLVEDP [23]: -2 and 0 | Δdp/dt [23]: -200 and -100 | ΔBPs (2nd administration, 5 mg/kg i.d., 10 min): -15 | ΔBPd [24]: -5 and -15 | ΔHR [24]: 0 and 5 | ΔLVEDP [24]: -2 and -1 | Δdp/dt [24]: -200 and 0 and -100 | Δdp/dt (2nd administration, 5 mg/kg i.d., 15 min): -100 | ΔBPd [25]: -5 and -15 and -10 | ΔBPs [25]: -15 and -10 | ΔHR [25]: -5 and 0 and 5 | ΔLVEDP [25]: -2 and -1 and 0 | Δdp/dt (2nd administration, 5 mg/kg i.d., 30 min): 0 | ΔBPd [26]: 0 and -10 and -5 | ΔBPs [26]: -10 and -5 | ΔHR [26]: 0 and 5 | ΔLVEDP [26]: -2 and -1 and 0 | ΔBPd [27]: 5 and -10 and 0 | ΔBPs [27]: 0 and -10 and -15 and -5 | ΔHR [27]: 5 and 0 and -5 | ΔLVEDP [27]: -2 and -3 and -1 | Δdp/dt [27]: 100 and 0 and -100 and 200 | ΔBPd [28]: 0 and -15 and -5 | ΔBPs [28]: -5 and -15 and 0 | ΔHR [28]: 5 and -5 and 10 | ΔLVEDP [28]: -2 and 1 | Δdp/dt [28]: 0 and 100 and 300 | ΔBPd [29]: 0 and -5 | ΔBPs [29]: -5 and 0 | ΔHR [29]: 5 and 15 and 0 | ΔLVEDP [29]: -2 and -3 and -1 | Δdp/dt [29]: 100 and 200 and 300
